Measurements: US20050266997A1, “Flowering stimulant composition using nitrobenzene” (priority 2002, published 2005)

Tested on: agricultural and horticultural crops
Settings: Nitrobenzene in a suitable formulation, used as spray or in granular form

SMILES: O=[N+]([O-])c1ccccc1 [Nitrobenzene]
- increasing flowers: 40 to 45%
